Data set [1] deals with HIV-1 A-17 MDR (B-NNRTI). Nature of the data set: PBMC multi-round infection assay, resistant isolate A-17. It is filed as cell-based. The protocol: (§1) Based on a preliminary screening, conjugates 5 and 8 were evaluated for their ability to inhibit a drug-resistant virus in a peripheral blood mononuclear cell (PBMC) assay. In this assay, FLT, 5, and 8 were tested against B- and C-wild type and A-17 and 4755–5 multidrug-resistant (MDR) clinical isolates of HIV-1, where compounds were incubated with PBMCs for 6 h and then washed off before the addition of the virus and further culture for 7 days.
(§2) For the assessment of compounds against the wild type (WT; R5; clones = 94US3393IN [B subtype] and 98USMSC5016 [C subtype]) and drug-resistant (clones = 4755−5 and A17) HIV-1 clinical isolates, PHA-P stimulated cells from at least two normal donors were pooled, diluted in fresh media, and plated in the interior wells of a 96-well round-bottom microplate. Pooling PBMCs from more than one donor was used to minimize the variability observed between the individual donors, which results from the quantitative and qualitative differences in HIV infection and overall response to the PHA and IL-2 of primary lymphocyte populations. Each plate contained virus/cell control wells (cells + virus), experimental wells (drug + cells + virus), and compound control wells (drug + media, no cells, necessary for MTS monitoring of cytotoxicity). Test drug dilutions were prepared in microtiter tubes, and each concentration was placed in appropriate wells. Following the addition of the drug dilutions to the PBMCs, a predetermined dilution of virus stock was then placed in each test well (final MOI ≅ 0.1). Because HIV-1 is not cytopathic to PBMCs, the same assay plate can be used for both the antiviral efficacy and cytotoxicity measurements. Compounds were incubated with virus and cells in a 96-well format for 6 h. The cells were then washed by removing 75% of the medium (150 μL) and replacing it with 150 μL of fresh (no drug) medium. The plates were then centrifuged (∼200 g) for 10 min, after which 150 μL of the medium was removed, and an additional 150 μL of fresh medium was added to each well and further incubated for 6 days or until peak reverse transcriptase (RT) activity was detected. A microtiter plate-based RT reaction was utilized. Incorporated radioactivity (counts per minute, CPM) was quantified using standard liquid scintillation techniques. Compound IC50 (50%, inhibition of virus replication) was calculated using statistical software and regression analysis. A cellular uptake study was conducted for fluorescence conjugates 23 and 24 using a previously published procedure with minor modifications. All of the experiments were conducted in triplicate.

The test system of data set [2] is HIV-1 98USMSC5016 (C-Wild Type). Nature of the data set: PBMC multi-round infection assay, clinical isolate 98USMSC5016. It is filed as cell-based. The following applies: Human immunodeficiency virus 1. Here is the method:
as §1, §2

Data set [3] has as its system HIV-1 94US3393IN (B-Wild Type). Nature of the data set: PBMC multi-round infection assay, clinical isolate 94US3393IN. The note with it: Human immunodeficiency virus 1. It is filed as cell-based. The protocol: as §1, §2
A short description of data set [4]: Solubility (shake-flask, UV detection; organic solvents). Type of data set: physicochemical. Here is the method: Solubility for 5 was investigated by the shake-flask methodology with UV-spectroscopic sample detection. To produce a saturated solution of 5, approximately 1 mg of solid material was added to 10 mL of an aqueous solution, which was adjusted to pH 2.3 with 0.5 M HCl. The sample was then sonicated in an ultrasonic bath for several hours (at room temperature) before being left to equilibrate for a period of approximately 3 days. The supernatant was then filtered under vacuum through a 0.2 µm PVDF filter plate, and the UV absorption spectrum of the sample was measured (after adjusting the pH of the solution to 11.8 with 0.5 M KOH). Molar absorption coefficients of 5 were obtained at pH 11.8 for 25 µM, 50 µM, and 100 µM solutions of 5, in order to quantify the concentration of the sample in the saturated supernatant. […] However, 5 was less soluble in DMSO (~4.1 mg/mL).

The subject of data set [5] is human vaginal cells (VK-2/E6E7). Nature of the data set: Vaginal cell cytotoxicity (MTS assay). The note with it: 6 h incubation; 31-1000 µg/mL. Type of data set: cell-based. The protocol: A commercially used spermicidal agent (N-9) and conjugate cytotoxicity was evaluated using immortalized human vaginal cells (VK-2/E6E7). […] Observed cytotoxicity from N-9 could be correlated with the generation of higher levels of cytokines by N-9.
Human T lymphoblastoid cells (CCRF-CEM, ATCC No. CCL-119) were grown to 70% confluency in a culture medium. CCRF-CEM cells were incubated with 10 µM of the compounds and mixed with trypan blue (0.1%) to color the dead cells. The percentage of viability was calculated by using a Cellometer Auto T.4 (Nexcelom Bioscience). The cell viability against the vaginal cells (VK-2/E6E7) was conducted according to the previously reported procedure. The effect of conjugates on the sperm viability and mobility was evaluated as described previously.
Figure 2 (A) Dose–response curves of the vaginal cytotoxicity in VK-2 cells (MTS assay) for 5, 6, 8, and N-9 after 6 h incubations. (B) Proinflammatory cytokine (IL-1α) production in the VK-2 cells (ELISA) after a 6 h incubation in the presence of 5, 6, 8, and N-9.

The subject of data set [6] is HIV-1 4755-5 MDR (B-MDR). Nature of the data set: PBMC multi-round infection assay, resistant isolate 4755-5. It is filed as cell-based. Here is the method: as §1, §2
The test system of data set [7] is cell-associated HIV-1 IIIB (infected SulT1 cells). Briefly: Cell-associated transmission assay (IIIB). Type of data set: cell-based. The note with it: Human immunodeficiency virus 1, IIIB, read-out: (CA) EC50, Table 2; cell-associated transmission assay (IIIB). The protocol: Anti-HIV activities of the compounds were evaluated according to the previously reported procedure. In summary, the HeLa (Human cervical carcinoma: ATCC CCL-2.1) cell line was used to measure the inactivation of both the cell-free virus preparations and virus-infected cell preparations. The cells were plated in culture plates 24 h prior to each experiment. Cell-free viral preparations of HIV-1 strains IIIB (lymphocytotropic strain) and BaL (monocytotropic strain) were used for the cell-free assay. For the cell-associated assay, the SulT1 cells were infected with IIIB virus 5 days prior to the experiment. Cell-free virus and virus-infected cells were mixed with different compounds and diluted to make different concentrations. The mixture was further diluted with the buffer and added to the HeLa cells.

Where [8] appears, read: Human immunodeficiency virus 1, PBMC.

Where two headings read alike, the source gives them in different places.

As to `Cc1cn([C@H]2C[C@H](F)[C@@H](COC(=O)CCCCCCCCCCCN=[N+]=[N-])O2)c(=O)[nH]c1=O` [Compound 5, 3′-fluoro-2′,3′-dideoxy-5′-O-(12-azidododecanoyl)thymidine], the IC50 in data set [1] (setting [8]) was determined as 4.4 nM; in data set [2], 2.1 nM; in data set [3], 1.1 nM; in data set [6] (setting [8]), 39.6 nM. Besides, the IC90 in data set [1] (setting [8]) worked out at 14.1 nM; in data set [2], 8.6 nM; in data set [3], 6.4 nM; in data set [6] (setting [8]) it was 507 nM. The “fold more potent than FLT against A-17” value in data set [1] (versus FLT IC50) is “at least 6 fold”. The solubility is ~4100 µg/mL in data set [4] (DMSO, organic solvent or mixture, DMSO, read-out: solubility in DMSO); ≤ 0.51 µM in data set [4] (aqueous solution adjusted to pH 2.3, pH 2.3, aqueous buffer, thermodynamic from solid, shake-flask, UV detection, read-out: aqueous solubility (upper limit)); > 30000 µg/mL in data set [4] (ethanol, organic solvent or mixture, ethanol, read-out: solubility in ethanol). For the same compound, in data set [4] (mixture of water/methanol (60:40)), the “solubility in water/methanol (60:40)” value is listed as “completely soluble”. For the same compound, the “cytotoxicity to vaginal cells” value in data set [5] is “did not show significant cytotoxic effects”. Moreover, the “fold more potent than FLT against 4755-5” value in data set [6] (versus FLT IC50) was ≥ 2.7 fold. Further, the EC50 in data set [7] came out at 12600 nM.

These data come from PMC9143043, “Synthesis and Biological Evaluation of 5′-O-Fatty Acyl Ester Derivatives of 3′-Fluoro-2′,3′-dideoxythymidine as Potential Anti-HIV Microbicides” (Molecules, 2022).
